Tests used:
[1] = target: T1, rh-alpha-Gal A in Fabry disease cell lines (Homo sapiens, UniProt P06280); assay: Correction by rh-alpha-Gal A in Fabry disease cell lines with chaperone; assay type: cell-based; conditions: three Fabry disease cell lines
T1 construct: purchased Genzyme Co, Cambridge, Mass., USA
T1 sequence (P06280 32-429): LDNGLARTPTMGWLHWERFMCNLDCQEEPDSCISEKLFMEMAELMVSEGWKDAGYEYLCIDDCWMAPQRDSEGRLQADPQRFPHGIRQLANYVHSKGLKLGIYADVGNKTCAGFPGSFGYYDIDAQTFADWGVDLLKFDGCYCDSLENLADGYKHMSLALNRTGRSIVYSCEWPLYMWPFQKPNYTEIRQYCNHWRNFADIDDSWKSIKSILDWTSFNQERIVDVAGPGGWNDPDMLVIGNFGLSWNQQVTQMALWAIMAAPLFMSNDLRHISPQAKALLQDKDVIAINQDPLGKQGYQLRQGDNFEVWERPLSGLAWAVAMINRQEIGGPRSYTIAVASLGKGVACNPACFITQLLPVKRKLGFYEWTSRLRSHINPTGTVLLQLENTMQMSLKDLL
Protocol: Fibroblasts from PD and Fabry disease patients were derived from skin biopsies after obtaining the informed consent of patients. Normal age-matched control fibroblasts were available in the laboratory of the Department of Pediatrics, Federico II University of Naples. All cell lines were grown at 37° C. with 5% CO2 in Dulbecco's modified Eagle's medium (Invitrogen, Grand Island, N.Y.) and 10% fetal bovine serum (Sigma-Aldrich, St Louis, Mo.), supplemented with 100 U/ml penicillin and […] streptomycin.

rhGAA in PD fibroblasts = target: T2, rhGAA in PD fibroblasts (Homo sapiens, UniProt P10253); assay: Correction of GAA activity by rhGAA in PD fibroblasts with chaperone (synergy); assay type: cell-based
T2 construct: purchased Genzyme Co, Cambridge, Mass., USA
Protocol: To study the rhGAA uptake and correction of GAA activity in PD fibroblasts, the cells were incubated with […] rhGAA for 24 hours, in the absence or in the presence of 10 mM NAC. Untreated cells or were used for comparison. After the incubation the cells were harvested by trypsinization and disrupted by 5 cycles of freezing and thawing.
GAA activity was assayed by using the fluorogenic substrate 4-methylumbelliferyl-alpha-D-glucopyranoside (Sigma-Aldrich) according to a published procedure [Porto et al, 2009]. Briefly, 25 micrograms of protein were incubated with the fluorogenic substrate (2 mM) in 0.2 M acetate buffer, pH 4.0, for 60 minutes in incubation mixtures of 100 μl. The reaction was stopped by adding 700 μl of glycine-carbonate buffer, pH 10.7. Fluorescence was read at 365 nm (excitation) and 450 nm (emission) on a Turner Biosystems Modulus fluorometer. Protein concentration in cell homogenates was measured by the Bradford assay (Biorad, Hercules, Calif.).
To study GAA immunoreactive material, fibroblast extracts were subjected to western blot analysis. The cells were harvested, washed in phosphate-buffered saline, resuspended in water, and disrupted by five cycles of freeze-thawing. Equal amounts (20 μg protein) of fibroblast extracts were subjected to sodium dodecyl sulfate polyacrylamide gel electrophoresis and proteins were transferred to PVD membrane (Millipore, Billerica, Mass.). An anti-human GAA antiserum was used as primary antibody to detect GAA polypeptides; to detect β-actin, a monoclonal mouse antibody was used Immunoreactive proteins were detected by chemiluminescence (ECL, Amersham, Freiburg, Germany)
To study the distribution of AlexaFluor546 labeleld GAA, PD fibroblasts grown on coverslips were fixed using methanol, permeabilized using 0.1% saponin and locked with 0.01% saponin, 1% fetal bovine serum diluted in phosphate-buffered saline for 1 hour. The cells were incubated with the primary antibodies, with secondary antibodies in blocking solution and then mounted with vectashield mounting medium (Vector Laboratories, Burlingame, Calif.). Samples were examined with a Zeiss LSM 5 10 laser scanning confocal microscope. Authors used Argon/2 (458, 477, 488, and 514 nanometers) and HeNe1 (543 nanometers) excitation lasers, which were switched-on separately to reduce crosstalk of the two fluorochromes. The green and the red emissions were separated by a dichroic splitter (FT 560) and filtered (515-540-nm bandpass filter for green and >610-nm long pass filter for red emission). A threshold was applied to the images to exclude ˜99% of the signal found in control images.

rh-alpha-Gal A = target: T3, rh-alpha-Gal A (Homo sapiens, UniProt P06280); assay: Effect of NAC on rh-alpha-Gal A at neutral pH; assay type: biochemical; conditions: 10 mM, 50 mM sodium citrate/phosphate buffer pH 7.0, after 48 h
T3 construct: purchased Genzyme Co, Cambridge, Mass., USA
T3 sequence (P06280 32-429): T1 sequence (P06280 32-429)
Protocol: An important concern on the use of pharmacological chaperones is the specificity of their effects and the possibility of interactions with other enzymes. […] The latter family includes lysosomal alpha-galactosidase A (alpha-Gal A), that is defective in another LSD, Fabry disease [Germain, 2010]. Two preparations of recombinant human alpha-Gal A (rh-alpha-Gal A) have been approved for ERT in Fabry disease patients. To test if NAC is active on this enzyme, authors incubated rh-alpha-Gal A and 10 mM NAC in 50 mM sodium citrate/phosphate buffer, pH 7.0. NAC had no effect on rh-alpha-Gal A after 48 h (FIG. 10A).

GAA activity in tissues = target: T4, GAA activity in tissues (Homo sapiens, UniProt P10253); assay: Synergy between NAC and rhGAA in vivo in mouse model of PD; parameters: species or system mice; conditions: oral NAC 5 days, rhGAA 100 mg/kg on day 3, liver, heart, diaphragm, gastrocnemium, not statistically significant
T4 construct: purchased Genzyme Co, Cambridge, Mass., USA
Protocol: Animal studies were performed according to the European Union Directive 86/609, regarding the protection of animals used for experimental purposes. The animals, mice model of PD [Raben et al, 1993], were allowed to drink 138 mM NAC in water ad libitum (4.2 g/kg/day) for 5 days. On day 3 they received a single rhGAA injection (100 mg/kg) in the tail vein. On day 5 the animals were sacrificed and tissues were analyzed for GAA activity.

rhGAA = target: T5, rhGAA (Homo sapiens, UniProt P10253); assay: Effect on rhGAA enzyme activity (standard activity assay); assay type: biochemical; conditions: three concentrations (FIG. 4)
T5 construct: purchased Genzyme Co, Cambridge, Mass., USA
Protocol: The standard activity assay of rhGAA was performed in 200 μl by using 5 μg of enzyme at 37° C. in 100 mM sodium acetate pH 4.0 and 20 mM 4NP-Glc. The reaction was started by adding the enzyme; after suitable incubation time (1-2 min) the reaction was blocked by adding 800 μL of 1 M sodium carbonate pH 10.2. Absorbance was measured at 420 nm at room temperature, the extinction coefficient to calculate enzymatic units was 17.2 mM^−1 cm^−1. One enzymatic unit is defined as the amount of enzyme catalyzing the conversion of 1 μmol substrate into product in 1 min, under the indicated conditions.

- enhancement of correction by rh-alpha-Gal A [1]: no enhancing effect
- amount of fluorochrome-labelled GAA compared to fluorescent GAA alone (rhGAA in PD fibroblasts; PD fibroblasts): increase
- correction of the enzymatic defect on co-administration with rhGAA (rhGAA in PD fibroblasts; PD fibroblasts): complete correction
- processing of rhGAA into the mature active isoforms (rhGAA in PD fibroblasts; PD fibroblasts, western blot band density): improved
- GAA-related polypeptides on western blot compared to rhGAA alone (rhGAA in PD fibroblasts; PD fibroblasts, with rhGAA): increased amounts
- improvement of GAA activity on co-administration with rhGAA, dose dependence (rhGAA in PD fibroblasts; fibroblasts from patient 3, 0.02-10 mM): dose-dependent effect
- effect on rh-alpha-Gal A (rh-alpha-Gal A): no effect
- correction of GAA enzyme activity in tissues, combination with rhGAA vs rhGAA alone (GAA activity in tissues): superior to rhGAA alone
- effect on the activity of the enzyme (rhGAA) (rhGAA): not a competitive inhibitor
Compound: CC(=O)N[C@@H](CS)C(=O)O [NAC, N-acetyl cysteine]

Reference: patent publication US20150147309A1, “ALLOSTERIC CHAPERONES AND USES THEREOF” (Fondazione Telethon, priority 2012, published 2015)
